According to patent publication EP0791603A2, “Pure somatostatin antagonist and methods of use thereof” (American Cyanamid Company, priority 1996, dated 1997):
pIC50, pKi: −log10 of the molar value. Positions of bridges follow the written chain, without caps; N, C: chain ends. Non-standard residues stand in square brackets, D forms with d. Residues, ends and D or L forms follow the SMILES beside them. Phe(4-NO2) = N[C@@H](Cc1ccc([N+](=O)[O-])cc1)C(=O)O; dPhe(4-NO2) = N[C@H](Cc1ccc([N+](=O)[O-])cc1)C(=O)O; 2Nal = N[C@@H](Cc1ccc2ccccc2c1)C(=O)O; NMeA = CN[C@@H](C)C(=O)O

What was measured:
SSTR2 [1] = test: Cyclic AMP accumulation in intact cells (forskalin stimulated, adrenal binding protein method); format: cell-based; conditions: % intrinsic activity
Excerpt: Cyclic AMP accumulation assays are used to determine the functional coupling of somatostatin receptors to effectors. All five cloned somatostatin receptors inhibit cyclic AMP accumulation and adenylyl cyclone activity ^1 ^,2,3,4,5. This evaluation measures cyclic AMP accumulation from intact cells using the adrenal binding protein method. Signal transduction by somatostatin is mediated by lowering intracellular c-AMP levels. This functional assay measures the ability of the test compound to inhibit the effect of somatostatin on forskalin stimulated c-AMP levels. ^1 K. Yasuda, S. Rens-Damiano, C. D. Breder, S. F. Law, C. B. Saper, T. Reisine and G. I. Bell, J. Biol. Chem. 267,20422-20428 (1992). ^2 J. F. Bruno, Y. Xu, J. Song and M. Berelowitz, Proc. Natl. Acad. Sci. USA 89, 11151-11155 (1992). ^3 A. M. O'Carrol, S. J. Lolait, M. König and L. Mahan, Mol. Pharmacol. 42, 939-946 (1992). ^4 J. R. Hadcock, J. Strnad and C. M. Eppler, Mol. Pharmacol. 45, 410-416 (1994). ^5 J. Strnad, C. M. Eppler, M. Corbett and J. R. Hadcock, Biochem. Biophys. Res. Commun.191, 968-976 (1993).
Bovine adrenal gland extracts are prepared according to the method of Brown et al^6 with minor modifications. […] Two-four adrenals are thawed and the cortices are separated on ice: chopped into small pieces; resuspended in 1.5 volumes of buffer containing 0.25 M sucrose, 50 mM Tris-HCl pH 7.4, 25 mM KCl, 5 mM MgCl2 and protease inhibitors (5 µg/ml leupeptin, 5µg/ml aprotinin, 100 µg/ml bacitracin, and 100 µg/ml benzamidine; homogenized with a Polytron and centrifuged for 5 minutes. The resultant supernatant is saved and centrifuged for 15 minutes. This resultant supernatant is saved and stored as 1 mL aliquots at -80°C. Four adrenals glands are usually sufficient to prepare 30-50 one mL aliquots. Each preparation is tested with standards at different dilutions before use in the following experiment. ^6 B. L. Brown, J. D. M. Albano, R. P. Ekins and A. M. Sgherzi, Biochem. J. 121, 561-562 (1971).
Somatostatin-mediated inhibition of cyclic AMP accumulation is measured in intact cells co-incubated with the diterpene forskalin (5 µM) which activates adenylyl cyclase directly and stimulates cyclic AMP accumulation in cells. The medium is aspirated from two 100 mm plates of cells, a 5 mL portion of phosphate-buffered saline containing 2 mM EDTA is added to each plate. The cells are washed off the plate, without scraping. The cells are then pelleted and resuspended in Kreb's Ringers Phosphate (KRP) containing 2 mM CaCl2 (added fresh), washed once and resuspended in 2 ml of KRP with a CaCl2 containing 100 µM IBMX. The cells are counted and the concentration of cells is adjusted to 50,000/70 µl and incubated 15 minutes at room temperature before starting the assay. […]

SSTR2 [2] = target: SSTR2 (Rattus norvegicus, UniProt P30680); test: Competitive binding, displacement of [125I]Tyr11 S-14; design: expressed in transfected cells; conditions: [125I]Tyr11 S-14 250 pM, room temperature 2 hours
Experimental: In this evaluation the concentration of test compound required to displace 50% of somatostatin, SRIF, from the SRIF receptor subtypes expressed in mammalian cells is measured, i.e., the concentration required to inhibit 50% of [^125I] Tyr^11 S-14 (Amersham) (IC50) from binding to the SRIF receptor subtypes.
Radiolabeled SRIF is mixed with pituitary cells, the test compound is added, the mixture is incubated and the radioactivity is measured as compared to control. Reduced radioactivity indicates successful competitive binding of the test compound to the pituitary cell receptor. The concentration of the test compound in nanomolar units required to displace 50% of SRIF from the pituitary cell receptor is calculated and reported in Table II as the IC50 value. Also calculated is the inhibitory constant, Ki.
Tyr^11S-14 (150,000 cpm at 2000 Ci/mmole, 250 pM final concentration). The binding reaction is initiated by adding 2-60µg of membrane protein in a 170 µL volume. Final reaction volume is 200 µl/well. All incubations are carried out at room temperature for 2 hours. Free radioligand is separated from bound ligand by rapid filtration through a glass fiber filter (IH-201-HA) using an Inotech cell harvester. The filter is then washed several times with cold (4°C) binding buffer lacking BSA and protease inhibitors prior to counting in an LKB gamma master counter (78% efficiency). Whatman GFC filters presoaked in 0.3% polyethylenimine (to decrease background) are used.
The IC50 values and Ki values are calculated using the well-known methods described by Y. Cheng and W. H. Prusoff, Biochem. Pharmacol. 22, 3099-3108 (1973), incorporated herein by reference thereto.

Chain of SSTR2 (Rattus norvegicus, UniProt P30680) (P30680 whole entry): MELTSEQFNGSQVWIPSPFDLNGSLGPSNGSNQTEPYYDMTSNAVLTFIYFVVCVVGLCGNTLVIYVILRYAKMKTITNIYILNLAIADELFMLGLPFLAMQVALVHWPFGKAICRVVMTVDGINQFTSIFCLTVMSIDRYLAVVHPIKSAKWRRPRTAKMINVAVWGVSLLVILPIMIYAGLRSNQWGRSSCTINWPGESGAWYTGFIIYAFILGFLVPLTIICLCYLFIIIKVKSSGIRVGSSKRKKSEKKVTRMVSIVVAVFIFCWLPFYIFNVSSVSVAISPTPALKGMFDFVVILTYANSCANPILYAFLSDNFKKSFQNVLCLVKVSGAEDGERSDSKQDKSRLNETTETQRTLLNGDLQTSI

SMILES | % IA (SSTR2 [1]) [%] | pIC50 (SSTR2 [2]; membrane protein, read-out: SSTR2 Binding Affinity IC50) | pKi (SSTR2 [2]; calculated by Cheng and Prusoff, read-out: SSTR2 Binding Affinity Ki)
C[C@@H](O)[C@@H]1NC(=O)[C@H](CCCCN)NC(=O)[C@@H](Cc2c[nH]c3ccccc23)NC(=O)[C@H](Cc2ccc(O)cc2)NC(=O)[C@H](NC(=O)[C@@H](N)Cc2ccc(I)cc2)CSSC[C@@H](C(=O)N[C@@H](Cc2ccc(O)cc2)C(N)=O)NC1=O | -12 |  | 
NCCCC[C@@H]1NC(=O)[C@@H](Cc2c[nH]c3ccccc23)NC(=O)[C@H](Cc2ccc(O)cc2)NC(=O)[C@H](NC(=O)[C@@H](N)Cc2ccc([N+](=O)[O-])cc2)CSSC[C@@H](C(=O)N[C@@H](Cc2ccc3ccccc3c2)C(N)=O)NC(=O)[C@H](CO)NC1=O (H-[Phe(4-NO2)][dC]Y[dW]KSC[2Nal]-NH2; disulfide 2-7) | 7 |  | 
CC(C)[C@@H]1NC(=O)[C@H](CCCCN)NC(=O)[C@@H](Cc2c[nH]c3ccccc23)NC(=O)[C@H](Cc2ccc(O)cc2)NC(=O)[C@H](NC(=O)[C@H](N)Cc2ccc([N+](=O)[O-])cc2)CSSC[C@@H](C(=O)N[C@@H](Cc2ccc(O)cc2)C(N)=O)NC1=O (H-[dPhe(4-NO2)][dC]Y[dW]KVCY-NH2; disulfide 2-7) | 42 |  | 
CC(C)[C@@H]1NC(=O)[C@H](CCCCN)NC(=O)[C@@H](Cc2c[nH]c3ccccc23)NC(=O)[C@H](Cc2ccc(O)cc2)NC(=O)[C@H](NC(=O)[C@@H](N)Cc2ccc([N+](=O)[O-])cc2)CSSC[C@@H](C(=O)N(C)[C@@H](C)C(N)=O)NC1=O [H-p-NO2Phe-D-Cys-Tyr-D-Trp-Lys-Val-Cys-N(CH3)Ala-NH2] (H-[Phe(4-NO2)][dC]Y[dW]KVC[NMeA]-NH2; disulfide 2-7) | 29 | 7.26 | 7.61
